In assay [1] the target is T1, Muscarinic acetylcholine receptor M2 (Homo sapiens, UniProt P08172).
T1 sequence (P08172 whole entry): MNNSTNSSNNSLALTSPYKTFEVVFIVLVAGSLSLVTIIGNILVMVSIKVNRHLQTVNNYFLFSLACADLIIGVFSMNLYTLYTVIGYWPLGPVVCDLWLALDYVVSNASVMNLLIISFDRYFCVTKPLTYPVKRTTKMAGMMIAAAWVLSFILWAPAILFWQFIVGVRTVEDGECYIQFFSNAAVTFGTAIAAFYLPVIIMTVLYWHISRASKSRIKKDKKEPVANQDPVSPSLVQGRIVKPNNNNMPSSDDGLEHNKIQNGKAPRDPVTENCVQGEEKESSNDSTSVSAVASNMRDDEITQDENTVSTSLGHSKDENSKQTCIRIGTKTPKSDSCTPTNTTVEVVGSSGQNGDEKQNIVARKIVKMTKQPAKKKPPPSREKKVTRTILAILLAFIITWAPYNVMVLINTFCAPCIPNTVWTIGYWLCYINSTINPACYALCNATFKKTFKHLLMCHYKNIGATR
In words: Binding affinity of compound was determined towards human Muscarinic acetylcholine receptor M2 using [3H]QNB radioligand.

For assay [2], the target named is T2, Muscarinic acetylcholine receptor M5 (Homo sapiens, UniProt P08912).
T2 sequence (P08912 whole entry): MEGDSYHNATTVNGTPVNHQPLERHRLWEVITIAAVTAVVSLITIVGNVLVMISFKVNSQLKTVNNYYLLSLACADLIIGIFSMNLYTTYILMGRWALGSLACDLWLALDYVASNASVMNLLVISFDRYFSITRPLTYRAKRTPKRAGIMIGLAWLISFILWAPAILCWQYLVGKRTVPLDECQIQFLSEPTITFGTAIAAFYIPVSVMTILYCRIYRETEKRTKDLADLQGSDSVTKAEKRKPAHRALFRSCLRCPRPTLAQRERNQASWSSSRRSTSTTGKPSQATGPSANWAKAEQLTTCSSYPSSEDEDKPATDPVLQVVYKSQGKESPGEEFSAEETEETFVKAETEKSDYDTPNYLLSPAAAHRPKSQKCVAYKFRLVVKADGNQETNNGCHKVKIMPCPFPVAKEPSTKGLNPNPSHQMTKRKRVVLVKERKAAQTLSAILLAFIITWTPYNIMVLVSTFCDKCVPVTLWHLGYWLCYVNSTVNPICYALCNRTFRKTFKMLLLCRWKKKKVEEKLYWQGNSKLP
Nature of the assay: Binding affinity of compound was determined towards human Muscarinic acetylcholine receptor M5 using [3H]QNB radioligand.

By Ki is commonly meant the equilibrium dissociation constant of an inhibitor or competing ligand from its target. Read a high Ki as a looser hold on the target.

Take `CCOC(=O)C1CN2CC(CCC2COCc2ccccc2)C1=O` (stereo not drawn) [exo-8-Benzyloxymethyl-4-hydroxy-1-aza-bicyclo[3.3.1]non-3-ene-3-carboxylic acid ethyl ester]: the figures for the Ki in assay [1] and in assay [2] were 80 nM and 560 nM, respectively.
